The supplement of paper PMC10307832

Assays:
Assay in all cases: relative viability (nuclei count vs DMSO), 5 days (fraction); higher = more cells survive
[1] = compound: O=S(=O)(c1ccccc1)N(CC(F)(F)F)c1ccc(C(O)(C(F)(F)F)C(F)(F)F)cc1 + CC(=O)c1c(C)c2cnc(Nc3ccc(N4CCNCC4)cn3)nc2n(C2CCCC2)c1=O [Palbociclib] (partner 0.5 µM)
Procedure, shortened: (§1)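 Values are medians from duplicate plates. Each reflects relative viability, defined as the nuclei count of treated wells over that of vehicle wells. Lung cancer cell lines in 1536-well plates were pin-tool dosed one day after seeding with one drug alone or with a fixed anchor-drug dose plus five library-drug doses (not always all listed) in √10 steps, then fixed, stained and imaged at 4× after 5 days.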

RO-3306 + AZD7762 = compound: C1=CC2=C(C=CC(=C2)C=C3C(=O)NC(=NCC4=CC=CS4)S3)N=C1 [RO-3306] + NC(=O)Nc1cc(-c2cccc(F)c2)sc1C(=O)N[C@H]1CCCNC1 [AZD7762] (partner 0.2 µM)
Procedure, shortened: as §1

RO-3306 + Pemetrexed = compound: C1=CC2=C(C=CC(=C2)C=C3C(=O)NC(=NCC4=CC=CS4)S3)N=C1 [RO-3306] + Nc1nc2[nH]cc(CCc3ccc(C(=O)N[C@@H](CCC(=O)O)C(=O)O)cc3)c2c(=O)[nH]1 [Pemetrexed] (partner 0.2 µM)
Procedure, shortened: as §1

RO-3306 + Navitoclax = compound: C1=CC2=C(C=CC(=C2)C=C3C(=O)NC(=NCC4=CC=CS4)S3)N=C1 [RO-3306] + CC1(C)CCC(c2ccc(Cl)cc2)=C(CN2CCN(c3ccc(C(=O)NS(=O)(=O)c4ccc(N[C@H](CCN5CCOCC5)CSc5ccccc5)c(S(=O)(=O)C(F)(F)F)c4)cc3)CC2)C1 [Navitoclax] (partner 0.5 µM)
Procedure, shortened: as §1

Row | Cell Line | relative viability ([1]; first compound 0.8 µM) | relative viability ([1]; first compound 2.53 µM) | relative viability ([1]; first compound 8 µM) | relative viability (RO-3306 + AZD7762; first compound 0.01 µM) | relative viability (RO-3306 + AZD7762; first compound 0.03162 µM) | relative viability (RO-3306 + AZD7762; first compound 0.1 µM) | relative viability (RO-3306 + AZD7762; first compound 0.3162 µM) | relative viability (RO-3306 + AZD7762; first compound 1 µM) | relative viability (RO-3306 + Pemetrexed; first compound 0.01 µM) | relative viability (RO-3306 + Pemetrexed; first compound 0.03162 µM) | relative viability (RO-3306 + Pemetrexed; first compound 0.1 µM) | relative viability (RO-3306 + Pemetrexed; first compound 0.3162 µM) | relative viability (RO-3306 + Pemetrexed; first compound 1 µM) | relative viability (RO-3306 + Navitoclax; first compound 0.01 µM) | relative viability (RO-3306 + Navitoclax; first compound 0.03162 µM) | relative viability (RO-3306 + Navitoclax; first compound 0.1 µM) | relative viability (RO-3306 + Navitoclax; first compound 0.3162 µM) | relative viability (RO-3306 + Navitoclax; first compound 1 µM)
1 | 201T | 0.365 | 0.354 | 0.371 | 0.617 | 0.651 | 0.59 | 0.511 | 0.595 | 0.277 | 0.315 | 0.358 | 0.32 | 0.41 | 1.2 | 1.21 | 1.14 | 1.23 | 1.23
2 | A549 | – | – | – | – | – | – | – | – | – | – | – | – | – | 1.36 | – | 1.2 | 1.18 | 1.21
3 | A-427 | 0.449 | 0.454 | 0.476 | 0.821 | 0.766 | 0.685 | 0.744 | 0.832 | 0.942 | 0.902 | 0.966 | 0.937 | 0.607 | 1.05 | 0.978 | 0.959 | 0.936 | 0.993
4 | ABC-1 | – | 0.656 | 0.714 | 0.906 | 0.812 | 0.823 | 0.963 | 0.813 | – | – | – | – | – | – | – | – | – | –
5 | BEN | 0.506 | 0.504 | 0.454 | 0.558 | 0.676 | 0.649 | 0.742 | 0.768 | 0.634 | 0.735 | 0.728 | 0.769 | 0.803 | 0.057 | 0.0628 | 0.0739 | 0.0677 | 0.0527
6 | CAL-12T | 0.318 | 0.33 | 0.412 | 0.718 | 0.565 | 0.575 | 0.658 | 0.747 | 1.38 | 1.35 | 1.17 | 1.15 | 1.26 | 1.01 | 1.07 | 1.32 | 1.16 | 1.13
7 | COR-L23 | 0.332 | 0.269 | 0.285 | – | – | – | – | – | 0.179 | 0.216 | 0.214 | 0.194 | 0.187 | 0.734 | – | 0.974 | 1.01 | 0.937
8 | COR-L 105 | 0.328 | 0.411 | 0.378 | – | – | – | – | – | 1.25 | 0.993 | 1.04 | 0.913 | 0.95 | 0.823 | 0.814 | 0.742 | 0.842 | 0.688
9 | Calu-6 | – | – | – | – | – | – | – | – | – | – | – | – | – | 1.06 | 0.776 | 0.934 | 0.908 | 0.826
10 | ChaGo-K-1 | 1 | 0.895 | 0.877 | 1.08 | 0.694 | 0.84 | 0.945 | 0.769 | 0.319 | 0.266 | 0.331 | 0.259 | 0.249 | 0.971 | 1.23 | 0.629 | 0.952 | 0.675
11 | EBC-1 | – | – | – | – | – | – | – | – | – | – | – | – | – | 0.412 | 0.357 | 0.315 | 0.474 | 0.29
12 | EKVX | 0.401 | 0.341 | 0.324 | 0.727 | 0.538 | 0.677 | 0.692 | 0.603 | 0.416 | 0.306 | 0.405 | 0.444 | 0.454 | 1.02 | 0.94 | 1.06 | 0.971 | 0.921
13 | EMC-BAC-2 | 0.525 | 0.473 | 0.5 | 1.1 | 1.04 | 1.14 | 1.14 | 1 | 0.427 | 0.423 | 0.431 | 0.458 | 0.394 | 1.44 | 0.984 | 1.25 | 1.24 | 1.14
14 | EPLC-272H | 0.357 | 0.286 | 0.261 | 0.152 | – | 0.138 | 0.188 | 0.199 | 0.36 | 0.436 | 0.406 | 0.3 | 0.247 | 1.15 | 0.92 | 1.02 | 1.11 | 0.994
15 | H3255 | 0.319 | 0.313 | 0.28 | 0.897 | 0.774 | 0.856 | 0.888 | 0.848 | 0.506 | 0.501 | 0.547 | 0.57 | 0.57 | 0.458 | 0.484 | 0.558 | 0.47 | 0.428
16 | HARA | 0.246 | 0.244 | 0.27 | 0.443 | – | 0.237 | 0.297 | 0.421 | 0.242 | – | 0.227 | 0.24 | 0.288 | 1.16 | 1.11 | 1.17 | 1.12 | 1.37
17 | HCC-15 | 0.703 | 0.567 | 0.642 | 1.25 | 1.08 | 1.12 | 1.21 | 1.34 | 0.203 | 0.21 | 0.26 | 0.225 | 0.199 | 0.727 | 0.656 | 0.716 | 0.808 | 0.654
18 | HCC-44 | 0.982 | 0.913 | 0.903 | 1.04 | 1.1 | 1.01 | 1 | 1.01 | 0.712 | 0.643 | 0.651 | 0.622 | 0.744 | 1.09 | 1.01 | 0.932 | 1.08 | 1.03
19 | HCC-78 | 0.522 | 0.445 | 0.475 | 0.536 | 0.498 | 0.595 | 0.682 | 0.513 | 0.948 | 0.83 | 0.91 | 0.9 | 0.923 | 0.814 | 0.767 | 0.675 | 0.92 | 0.682
20 | HCC-366 | 0.649 | 0.379 | 0.239 | 0.242 | 0.215 | 0.254 | 0.347 | 0.417 | 0.215 | 0.194 | 0.198 | 0.137 | 0.213 | 1.22 | 0.943 | 0.991 | 1.14 | 1.15
21 | HCC-827 | 0.513 | 0.418 | 0.388 | 0.234 | 0.18 | 0.216 | 0.197 | 0.196 | 0.265 | 0.26 | 0.27 | 0.254 | 0.277 | 1.04 | 0.988 | 0.99 | 0.994 | 0.998
